For the assay, the target named is T1, human GR (Homo sapiens, UniProt P04150).
T1 sequence (P04150 1-777): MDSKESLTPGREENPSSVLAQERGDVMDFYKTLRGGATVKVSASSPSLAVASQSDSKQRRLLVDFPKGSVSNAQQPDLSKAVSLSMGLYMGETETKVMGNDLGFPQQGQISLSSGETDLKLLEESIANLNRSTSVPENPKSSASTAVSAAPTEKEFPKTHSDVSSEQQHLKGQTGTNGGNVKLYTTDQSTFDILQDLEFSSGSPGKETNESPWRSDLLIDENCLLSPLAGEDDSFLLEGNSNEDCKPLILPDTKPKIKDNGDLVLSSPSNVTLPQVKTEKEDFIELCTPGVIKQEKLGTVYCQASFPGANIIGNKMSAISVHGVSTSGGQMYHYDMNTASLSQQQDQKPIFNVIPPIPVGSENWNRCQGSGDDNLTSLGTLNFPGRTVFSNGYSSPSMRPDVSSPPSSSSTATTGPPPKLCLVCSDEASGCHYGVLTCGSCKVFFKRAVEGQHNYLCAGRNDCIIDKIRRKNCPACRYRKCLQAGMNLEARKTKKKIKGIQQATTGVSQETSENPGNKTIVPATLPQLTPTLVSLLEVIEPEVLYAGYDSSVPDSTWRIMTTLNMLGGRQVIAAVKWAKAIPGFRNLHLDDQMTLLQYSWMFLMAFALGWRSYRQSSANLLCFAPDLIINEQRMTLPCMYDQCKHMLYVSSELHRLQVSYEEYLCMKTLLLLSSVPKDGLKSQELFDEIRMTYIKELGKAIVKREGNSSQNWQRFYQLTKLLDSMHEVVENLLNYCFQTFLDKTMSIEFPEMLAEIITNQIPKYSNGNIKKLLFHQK
Kind of assay: Trans-Activation Modulation of Glucocorticoid Receptor (GRAMMER), MMTV-LUC reporter, agonist mode. Type of assay: cell-based. Further details: endogenous in cells. The settings on record: for Emax: A549, A549 cells, maximum activity, read-out: Transactivation A549 Cells GRAMMER Emax; for EC50: A549 cells, inflection point, read-out: Transactivation A549 Cells GRAMMER IP. An outline of the steps:
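Readout is luciferase from a modified MMTV LTR promoter after 24 h compound exposure alongside 10 nM dexamethasone (100% activity reference), DMSO ≤1%.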

The Emax is the maximal effect, on the per cent scale that the assay sets. For `Cn1cc(S(=O)(=O)N(CCc2ccccn2)C[C@H]2CCC3=Cc4c(cnn4-c4ccc(F)cc4)C[C@@]32C)c(C(F)(F)F)n1` [Example 150, N-{[(4αR,5S)-1-(4-fluorophenyl)-4α-methyl-1,4,4α,5,6,7-hexahydrocyclopenta[f]indazol-5-yl]methyl}-1-methyl-N-(2-pyridin-2-ylethyl)-3-(trifluoromethyl)-1H-pyrazole-4-sulfonamide], the Emax was 45.6% and the EC50 turned out to be 0.346 µM.
As for `CCCS(=O)(=O)N(CCc1ccccn1)C[C@H]1CCC2=Cc3c(cnn3-c3ccc(F)cc3)C[C@@]21C` [Example 151, N-{[(4αR,5S)-1-(4-fluorophenyl)-4α-methyl-1,4,4α,5,6,7-hexahydrocyclopenta[f]indazol-5-yl]methyl}-N-(2-pyridin-2-ylethyl)propane-1-sulfonamide], the Emax turned out to be 76% and the EC50 was 0.421 µM.
As for `C[C@]12Cc3cnn(-c4ccc(F)cc4)c3C=C1CC[C@@H]2CN(CCc1ccccn1)S(=O)(=O)CCN1C(=O)c2ccccc2C1=O` [Example 152, 2-(1,3-dioxo-1,3-dihydro-2H-isoindol-2-yl)-N-{[(4αR,5S)-1-(4-fluorophenyl)-4α-methyl-1,4,4α,5,6,7-hexahydrocyclopenta[f]indazol-5-yl]methyl}-N-(2-pyridin-2-ylethyl)ethanesulfonamide], the Emax was found to be 2% and the EC50 was found to be 0.0639 µM.
Take `C[C@]12Cc3cnn(-c4ccc(F)cc4)c3C=C1CC[C@@H]2CN(CCc1ccccn1)S(=O)(=O)Cc1ccccc1C(F)(F)F` [Example 153, N-{[(4αR,5S)-1-(4-fluorophenyl)-4α-methyl-1,4,4α,5,6,7-hexahydrocyclopenta[f]indazol-5-yl]methyl}-N-(2-pyridin-2-ylethyl)-1-[2-(trifluoromethyl)phenyl]methanesulfonamide]: the Emax amounted to 15.2% and the EC50 came out at 0.315 µM.
In the case of `C[C@]12Cc3cnn(-c4ccc(F)cc4)c3C=C1CC[C@@H]2CN(CC(O)C(F)F)S(=O)(=O)Cc1cccnc1` (stereo partly drawn) [Example 154, N-(3,3-difluoro-2-hydroxypropyl)-N-{[(4αR,5S)-1-(4-fluorophenyl)-4α-methyl-1,4,4α,5,6,7-hexahydrocyclopenta[f]indazol-5-yl]methyl}-1-pyridin-3-ylmethanesulfonamide], the Emax stood at 17.9% and the EC50 was 0.509 µM.
For the compound `CCCS(=O)(=O)N(CC(O)C(F)F)C[C@H]1CCC2=Cc3c(cnn3-c3ccc(F)cc3)C[C@@]21C` (stereo partly drawn) [Example 155, N-(3,3-difluoro-2-hydroxypropyl)-N-{[(4αR,5S)-1-(4-fluorophenyl)-4α-methyl-1,4,4α,5,6,7-hexahydrocyclopenta[f]indazol-5-yl]methyl}propane-1-sulfonamide], the Emax turned out to be 29% and the EC50 came to 0.989 µM.
As for `Cn1cc(S(=O)(=O)N(CC(O)C(F)F)C[C@H]2CCC3=Cc4c(cnn4-c4ccc(F)cc4)C[C@@]32C)c(C(F)(F)F)n1` (stereo partly drawn) [Example 156, N-(3,3-difluoro-2-hydroxypropyl)-N-{[(4αR,5S)-1-(4-fluorophenyl)-4α-methyl-1,4,4α,5,6,7-hexahydrocyclopenta[f]indazol-5-yl]methyl}-1-methyl-3-(trifluoromethyl)-1H-pyrazole-4-sulfonamide], the Emax was 4.5% and the EC50 turned out to be 0.193 µM.
Regarding `Cn1cc(S(=O)(=O)N(CC(O)c2ccccn2)C[C@H]2CCC3=Cc4c(cnn4-c4ccc(F)cc4)C[C@@]32C)c(C(F)(F)F)n1` (stereo partly drawn) [Example 157, N-{[(4αR,5S)-1-(4-fluorophenyl)-4α-methyl-1,4,4α,5,6,7-hexahydrocyclopenta[f]indazol-5-yl]methyl}-N-(2-hydroxy-2-pyridin-2-ylethyl)-1-methyl-3-(trifluoromethyl)-1H-pyrazole-4-sulfonamide], the Emax was 63.6% and the EC50 was 0.124 µM.
As for `C[C@]12Cc3cnn(-c4ccc(F)cc4)c3C=C1CC[C@@H]2CN(CC=O)S(=O)(=O)c1ccccc1F` [Example 158, 2-fluoro-N-{[(4αR,5S)-1-(4-fluorophenyl)-4α-methyl-1,4,4α,5,6,7-hexahydrocyclopenta[f]indazol-5-yl]methyl}-N-(2-oxoethyl)benzenesulfonamide], the Emax came out at 36.2% and the EC50 was determined as 0.747 µM.
Take `COC(=O)c1ccccc1CCN(C[C@H]1CCC2=Cc3c(cnn3-c3ccc(F)cc3)C[C@@]21C)S(=O)(=O)CC(F)(F)F` [Example 159, methyl 2-(2-{{[(4αR,5S)-1-(4-fluorophenyl)-4α-methyl-1,4,4α,5,6,7-hexahydrocyclopenta[f]indazol-5-yl]methyl}[(2,2,2-trifluoroethyl)sulfonyl]amino}ethyl)benzoate]: the Emax was found to be 28.9% and the EC50 worked out at 0.367 µM.
As for `COC(=O)c1cc(Cl)ccc1CCN(C[C@H]1CCC2=Cc3c(cnn3-c3ccc(F)cc3)C[C@@]21C)S(=O)(=O)CC(F)(F)F` [Example 160, methyl 5-chloro-2-(2-{{[(4αR,5S)-1-(4-fluorophenyl)-4α-methyl-1,4,4α,5,6,7-hexahydrocyclopenta[f]indazol-5-yl]methyl}[(2,2,2-trifluoroethyl)sulfonyl]amino}ethyl)benzoate], the Emax was determined as 4.3% and the EC50 came out at 0.547 µM.
As for `Cc1noc(C)c1S(=O)(=O)NC[C@H]1CCC2=Cc3c(cnn3-c3ccc(F)cc3)C[C@@]21C` [Example 161, N-{[(4αR,5S)-1-(4-fluorophenyl)-4α-methyl-1,4,4α,5,6,7-hexahydrocyclopenta[f]indazol-5-yl]methyl}-3,5-dimethylisoxazole-4-sulfonamide], the Emax turned out to be 18.3% and the EC50 was found to be 0.419 µM.
As to `COC(=O)c1ccccc1CS(=O)(=O)N(CC(O)C(F)(F)F)C[C@H]1CCC2=Cc3c(cnn3-c3ccc(F)cc3)C[C@@]21C` (stereo partly drawn) [Example 162, methyl 2-({[{[(4αR,5S)-1-(4-fluorophenyl)-4α-methyl-1,4,4α,5,6,7-hexahydrocyclopenta[f]indazol-5-yl]methyl}(3,3,3-trifluoro-2-hydroxypropyl)amino]sulfonyl}methyl)benzoate], the Emax was 87.1% and the EC50 was 0.323 µM.
For `C[C@]12Cc3cnn(-c4ccc(F)cc4)c3C=C1CC[C@@H]2CN(CCc1ccccc1CO)S(=O)(=O)CC(F)(F)F` [Example 163, 2,2,2-trifluoro-N-{[(4αR,5S)-1-(4-fluorophenyl)-4α-methyl-1,4,4α,5,6,7-hexahydrocyclopenta[f]indazol-5-yl]methyl}-N-{2-[2-(hydroxymethyl)phenyl]ethyl}ethanesulfonamide], the maximum response (Emax) was found to be 48.4% and the EC50 was 0.241 µM.
As for `C[C@]12Cc3cnn(-c4ccc(F)cc4)c3C=C1CC[C@@H]2CN(CC(O)C(F)(F)F)S(=O)(=O)Cc1ccccc1C(=O)O` (stereo partly drawn) [Example 164, 2-({[{[(4αR,5S)-1-(4-fluorophenyl)-4α-methyl-1,4,4α,5,6,7-hexahydrocyclopenta[f]indazol-5-yl]methyl}(3,3,3-trifluoro-2-hydroxypropyl)amino]sulfonyl}methyl)benzoic acid], the Emax was found to be 58.3% and the EC50 amounted to 1.08 µM.
As for `C[C@]12Cc3cnn(-c4ccc(F)cc4)c3C=C1CC[C@@H]2CN(CCc1ccccn1)S(=O)(=O)Cc1ccccn1` [Example 165, N-{[(4αR,5S)-1-(4-fluorophenyl)-4α-methyl-1,4,4α,5,6,7-hexahydrocyclopenta[f]indazol-5-yl]methyl}-1-pyridin-2-yl-N-(2-pyridin-2-ylethyl)methanesulfonamide], the Emax was found to be 37.8% and the EC50 amounted to 0.306 µM.
On the same counts, the results for `C[C@]12Cc3cnn(-c4ccc(F)cc4)c3C=C1CC[C@@H]2CN(CCc1ccccn1)S(=O)(=O)Cc1ccncc1` [Example 166, N-{[(4αR,5S)-1-(4-fluorophenyl)-4α-methyl-1,4,4α,5,6,7-hexahydrocyclopenta[f]indazol-5-yl]methyl}-1-pyridin-4-yl-N-(2-pyridin-2-ylethyl)methanesulfonamide] are 56.4% and 0.303 µM.
Take `C[C@]12Cc3cnn(-c4ccc(F)cc4)c3C=C1CC[C@@H]2CN(CC(O)C(F)(F)F)S(=O)(=O)Cc1ccccc1C(N)=O` (stereo partly drawn) [Example 167, 2-({[{[(4αR,5S)-1-(4-fluorophenyl)-4α-methyl-1,4,4α,5,6,7-hexahydrocyclopenta[f]indazol-5-yl]methyl}(3,3,3-trifluoro-2-hydroxypropyl)amino]sulfonyl}methyl) benzamide]: the maximal response (Emax) came to 74.9% and the EC50 is 0.15 µM.
`Cc1noc(C)c1S(=O)(=O)N(C[C@H]1CCC2=Cc3c(cnn3-c3ccc(F)cc3)C[C@@]21C)C[C@@H](C)O` [Example 168, N-{[(4αR,5S)-1-(4-fluorophenyl)-4α-methyl-1,4,4α,5,6,7-hexahydrocyclopenta[f]indazol-5-yl]methyl}-N-[(2R)-2-hydroxypropyl]-3,5-dimethylisoxazole-4-sulfonamide]: the Emax was 48.1% and the EC50 worked out at 0.123 µM.

These data come from patent publication US8299048B2, “Hexahydrocyclopentyl[f]indazole sulfonamides and derivatives thereof as selective glucocorticoid receptor modulators” (Merck Sharp & Dohme Corp., priority 2008, dated 2012).
